Source: US7781591B2, “Substituted 3-cyanopyridines as protein kinase inhibitors” (Wyeth LLC, priority 2006, dated 2010)
pIC50: −log10 of the molar value.

These molecules were tested against T1, human PKCθ full length enzyme (Homo sapiens, UniProt Q04759) (assay: PKCθ IMAP assay (fluorescence polarization)). Settings: human PKCθ full length enzyme, IMAP; average value; read-out: IC50 PKCθ IMAP.
T1 construct: human PKCθ full length enzyme (Panvera Cat# P2996); purchased Panvera P2996
Type: biochemical
Procedure: The reaction buffer was prepared by diluting the 5× stock reaction buffer and adding DTT to obtain a concentration of 3.0 mM. […] The final concentration of compound was 2× and 10% DMSO. DMSO was added to the rest of the master mix to increase the concentration to 10%. 10 μl of the master mix containing 10% DMSO was added to the rest of the wells on the plate except the 2nd column. 20 μl was transferred from the first column to the 2nd column. The compounds were serially diluted in 2:1 ratio starting from the 2nd column. A 2× ([…]) PKCθ solution was made in the reaction buffer. 10 μl of the PKCθ solution was added to every well to achieve these final concentrations: PKCθ—1 nM; ATP—6 μM; peptide—100 nM; DMSO—5%. Samples were incubated for 25 minutes at room temperature. The binding reagent was prepared by diluting the beads in 1× binding buffer to 800:1. 50 μl of the binding reagent was added to every well and incubated for 20 minutes. FP was measured using Envision2100 (PerkinElmer Life Sciences). Wells with no ATPs and wells with no enzymes were used as controls.

T1 sequence (Q04759 whole entry): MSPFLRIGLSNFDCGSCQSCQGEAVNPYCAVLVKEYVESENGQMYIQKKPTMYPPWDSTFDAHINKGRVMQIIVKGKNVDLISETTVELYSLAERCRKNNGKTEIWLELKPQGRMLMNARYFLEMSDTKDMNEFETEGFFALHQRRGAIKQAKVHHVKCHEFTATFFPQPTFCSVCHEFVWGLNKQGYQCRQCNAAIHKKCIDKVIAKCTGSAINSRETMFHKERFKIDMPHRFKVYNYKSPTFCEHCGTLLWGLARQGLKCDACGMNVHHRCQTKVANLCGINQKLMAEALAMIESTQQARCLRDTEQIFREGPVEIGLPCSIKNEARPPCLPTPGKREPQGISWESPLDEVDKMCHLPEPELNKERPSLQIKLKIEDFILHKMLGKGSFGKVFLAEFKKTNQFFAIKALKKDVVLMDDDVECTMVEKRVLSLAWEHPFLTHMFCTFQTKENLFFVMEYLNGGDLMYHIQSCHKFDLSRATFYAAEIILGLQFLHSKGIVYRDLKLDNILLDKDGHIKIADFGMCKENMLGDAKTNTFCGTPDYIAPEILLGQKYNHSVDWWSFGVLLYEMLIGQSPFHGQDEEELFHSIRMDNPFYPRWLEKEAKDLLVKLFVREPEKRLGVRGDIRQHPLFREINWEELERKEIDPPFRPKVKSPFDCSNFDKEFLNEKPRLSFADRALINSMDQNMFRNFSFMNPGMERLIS

Row | Structure (SMILES) | pIC50
1 | CCN(CC)CCOc1cc(-c2cncc(C#N)c2Nc2ccc3[nH]ccc3c2)ccc1OC [Compound 179, 5-{3-[2-(diethylamino)ethoxy]-4-methoxyphenyl}-4-(1H-indol-5-ylamino)nicotinonitrile] | 6.39
2 | COc1ccc(-c2cncc(C#N)c2Nc2ccc3[nH]ccc3c2)cc1OCCN(C(C)C)C(C)C [Compound 180, 5-{3-[2-(diisopropylamino)ethoxy]-4-methoxyphenyl}-4-(1H-indol-5-ylamino)nicotinonitrile] | 6.16
3 | N#Cc1cncc(-c2cccc(-c3ccc(CN4CCOCC4)s3)c2)c1Nc1ccc2[nH]ccc2c1 [Compound 185, 4-(1H-indol-5-ylamino)-5-{3-[5-(morpholin-4-ylmethyl)-2-thienyl]phenyl}nicotinonitrile] | 6.30
4 | COc1ccc(-c2cncc(C#N)c2Nc2ccc3[nH]ccc3c2)cc1-c1cccc(Cl)c1 [Compound 191, 5-(3′-chloro-6-methoxybiphenyl-3-yl)-4-(1H-indol-5-ylamino)nicotinonitrile] | 6.49
5 | COc1ccc(-c2cncc(C#N)c2Nc2ccc3[nH]ccc3c2)cc1-c1ccc(C(=O)NC2CCCC2)cc1 [Compound 192, 5′-[5-cyano-4-(1H-indol-5-ylamino)pyridin-3-yl]-N-cyclopentyl-2′-methoxybiphenyl-4-carboxamide] | 6.55
6 | CNC(=O)c1ccc(-c2cccc(-c3cncc(C#N)c3Nc3ccc4[nH]ccc4c3)c2)cc1 [Compound 196, 3′-[5-cyano-4-(1H-indol-5-ylamino)pyridin-3-yl]-N-methylbiphenyl-4-carboxamide] | 6.34
7 | CCC(CC)NC(=O)c1ccc(-c2cccc(-c3cncc(C#N)c3Nc3ccc4[nH]ccc4c3)c2)cc1 [Compound 198, 3′-[5-cyano-4-(1H-indol-5-ylamino)pyridin-3-yl]-N-(1-ethylpropyl)biphenyl-4-carboxamide] | 6.48
8 | N#Cc1cncc(-c2cccc(-c3ccc(C(=O)NCCO)cc3)c2)c1Nc1ccc2[nH]ccc2c1 [Compound 199, 3′-[5-cyano-4-(1H-indol-5-ylamino)pyridin-3-yl]-N-(2-hydroxyethyl)biphenyl-4-carboxamide] | 5.89
9 | N#Cc1cncc(-c2cccc(-c3ccc(C(=O)NC4CC4)cc3)c2)c1Nc1ccc2[nH]ccc2c1 [Compound 201, 3′-[5-cyano-4-(1H-indol-5-ylamino)pyridin-3-yl]-N-cyclopropylbiphenyl-4-carboxamide] | 6.52
10 | N#Cc1cncc(-c2cccc(-c3ccc(C(=O)NC4CCCCC4)cc3)c2)c1Nc1ccc2[nH]ccc2c1 [Compound 202, 3′-[5-cyano-4-(1H-indol-5-ylamino)pyridin-3-yl]-N-cyclohexylbiphenyl-4-carboxamide] | 6.47
11 | N#Cc1cncc(-c2cccc(-c3ccc(C(=O)NCCN4CCCC4)cc3)c2)c1Nc1ccc2[nH]ccc2c1 [Compound 203, 3′-[5-cyano-4-(1H-indol-5-ylamino)pyridin-3-yl]-N-(2-pyrrolidin-1-ylethyl)biphenyl-4-carboxamide] | 6.54
12 | N#Cc1cncc(-c2cccc(-c3ccc(C(=O)N4CCCC4)cc3)c2)c1Nc1ccc2[nH]ccc2c1 [Compound 205, 4-(1H-indol-5-ylamino)-5-[4′-(pyrrolidin-1-ylcarbonyl)biphenyl-3-yl]nicotinonitrile] | 6.29
13 | N#Cc1cncc(-c2cccc(-c3ccc(C(=O)NCCCCO)cc3)c2)c1Nc1ccc2[nH]ccc2c1 [Compound 209, 3′-[5-cyano-4-(1H-indol-5-ylamino)pyridin-3-yl]-N-(4-hydroxybutyl)biphenyl-4-carboxamide] | 6.55
14 | N#Cc1cncc(-c2cccc(-c3ccc(C(=O)NCCCO)cc3)c2)c1Nc1ccc2[nH]ccc2c1 [Compound 210, 3′-[5-cyano-4-(1H-indol-5-ylamino)pyridin-3-yl]-N-(3-hydroxypropyl)biphenyl-4-carboxamide] | 5.59
15 | CNCCNC(=O)c1ccc(-c2cccc(-c3cncc(C#N)c3Nc3ccc4[nH]ccc4c3)c2)cc1 [Compound 211, 3′-[5-cyano-4-(1H-indol-5-ylamino)pyridin-3-yl]-N-[2-(methylamino)ethyl]biphenyl-4-carboxamide] | 6.48
16 | N#Cc1cncc(-c2cccc(-c3ccc(C(=O)NCc4ccccn4)cc3)c2)c1Nc1ccc2[nH]ccc2c1 [Compound 212, 3′-[5-cyano-4-(1H-indol-5-ylamino)pyridin-3-yl]-N-(pyridin-2-ylmethyl)biphenyl-4-carboxamide] | 6.23

These reach a higher pIC50. Values come first.

Row | pIC50 | Structure (SMILES)
17 | 7.52 | N#Cc1cncc(-c2cccc(OCCNCCO)c2)c1Nc1ccc2[nH]ccc2c1 [Compound 176, 5-(3-{2-[(2-hydroxyethyl)amino]ethoxy}phenyl)-4-(1H-indol-5-ylamino)nicotinonitrile]
18 | 7.70 | N#Cc1cncc(-c2cccc(OCCNCCN3CCCC3)c2)c1Nc1ccc2[nH]ccc2c1 [Compound 177, 4-(1H-indol-5-ylamino)-5-(3-{2-[(2-pyrrolidin-1-ylethyl)amino]ethoxy}phenyl)nicotinonitrile]
19 | 6.96 | COc1ccc(-c2cncc(C#N)c2Nc2ccc3[nH]ccc3c2)cc1OCCCl [Compound 178, 5-[3-(2-chloroethoxy)-4-methoxyphenyl]-4-(1H-indol-5-ylamino)nicotinonitrile]
20 | 7.41 | COc1ccc(-c2cncc(C#N)c2Nc2ccc3[nH]ccc3c2)cc1OCCNCc1ccccc1 [Compound 181, 5-{3-[2-(benzylamino)ethoxy]-4-methoxyphenyl}-4-(1H-indol-5-ylamino)nicotinonitrile]
21 | 6.92 | COCCNCCOc1cc(-c2cncc(C#N)c2Nc2ccc3[nH]ccc3c2)ccc1OC [Compound 182, 4-(1H-indol-5-ylamino)-5-(4-methoxy-3-{2-[(2-methoxyethyl)amino]ethoxy}phenyl)nicotinonitrile]
22 | 7.15 | COc1ccc(-c2cncc(C#N)c2Nc2ccc3[nH]ccc3c2)cc1OCCNc1nnc(C)s1 [Compound 183, 4-(1H-indol-5-ylamino)-5-(4-methoxy-3-{2-[(5-methyl-1,3,4-thiadiazol-2-yl)amino]ethoxy}phenyl)nicotinonitrile]
23 | 6.59 | CN1CCN(Cc2ccc(-c3cccc(-c4cncc(C#N)c4Nc4ccc5[nH]ccc5c4)c3)s2)CC1 [Compound 184, 4-(1H-indol-5-ylamino)-5-(3-{5-[(4-methylpiperazin-1-yl)methyl]-2-thienyl}phenyl)nicotinonitrile]
24 | 6.85 | N#Cc1cncc(-c2cccc(-c3ccc(CN4CCCCC4)s3)c2)c1Nc1ccc2[nH]ccc2c1 [Compound 186, 4-(1H-indol-5-ylamino)-5-{3-[5-(piperidin-1-ylmethyl)-2-thienyl]phenyl}nicotinonitrile]
25 | 6.96 | CN(C)Cc1ccc(-c2cccc(-c3cncc(C#N)c3Nc3ccc4[nH]ccc4c3)c2)s1 [Compound 187, 5-(3-{5-[(dimethylamino)methyl]-2-thienyl}phenyl)-4-(1H-indol-5-ylamino)nicotinonitrile]
26 | 8.00 | COc1ccc(-c2cncc(C#N)c2Nc2ccc3[nH]ccc3c2)cc1Br [Compound 188, 5-(3-bromo-4-methoxyphenyl)-4-(1H-indol-5-ylamino)nicotinonitrile]
27 | 7.52 | COc1ccc(-c2cncc(C#N)c2Nc2ccc3[nH]ccc3c2)cc1-c1cccs1 [Compound 189, 4-(1H-indol-5-ylamino)-5-[4-methoxy-3-(2-thienyl)phenyl]nicotinonitrile]
28 | 6.74 | COc1ccc(-c2cncc(C#N)c2Nc2ccc3[nH]ccc3c2)cc1-c1ccc(Cl)cc1 [Compound 190, 5-(4′-chloro-6-methoxybiphenyl-3-yl)-4-(1H-indol-5-ylamino)nicotinonitrile]
29 | 6.60 | COc1ccc(-c2cncc(C#N)c2Nc2ccc3[nH]ccc3c2)cc1-c1ccccc1Cl [Compound 193, 5-(2′-chloro-6-methoxybiphenyl-3-yl)-4-(1H-indol-5-ylamino)nicotinonitrile]
30 | 6.60 | N#Cc1cncc(-c2ccc(OCc3ccccc3)cc2)c1Nc1ccc2[nH]ccc2c1 [Compound 195, 5-[4-(benzyloxy)phenyl]-4-(1H-indol-5-ylamino)nicotinonitrile]
31 | 6.72 | CCCCNC(=O)c1ccc(-c2cccc(-c3cncc(C#N)c3Nc3ccc4[nH]ccc4c3)c2)cc1 [Compound 197, N-butyl-3′-[5-cyano-4-(1H-indol-5-ylamino)pyridin-3-yl]biphenyl-4-carboxamide]
32 | 6.72 | COCCNC(=O)c1ccc(-c2cccc(-c3cncc(C#N)c3Nc3ccc4[nH]ccc4c3)c2)cc1 [Compound 200, 3′-[5-cyano-4-(1H-indol-5-ylamino)pyridin-3-yl]-N-(2-methoxyethyl)biphenyl-4-carboxamide]
33 | 6.57 | N#Cc1cncc(-c2cccc(-c3ccc(C(=O)NCc4cccnc4)cc3)c2)c1Nc1ccc2[nH]ccc2c1 [Compound 213, 3′-[5-cyano-4-(1H-indol-5-ylamino)pyridin-3-yl]-N-(pyridin-3-ylmethyl)biphenyl-4-carboxamide]
34 | 6.60 | N#Cc1cncc(-c2cccc(-c3ccc(C(=O)NCc4ccncc4)cc3)c2)c1Nc1ccc2[nH]ccc2c1 [Compound 214, 3′-[5-cyano-4-(1H-indol-5-ylamino)pyridin-3-yl]-N-(pyridin-4-ylmethyl)biphenyl-4-carboxamide]
35 | 7.22 | CCCCNC(=O)c1ccc(-c2cccc(-c3cncc(C#N)c3Nc3cccc4[nH]ccc34)c2)cc1 [Compound 215, N-butyl-3′-[5-cyano-4-(1H-indol-4-ylamino)pyridin-3-yl]biphenyl-4-carboxamide]
